Structures are written as SMILES. Some results are limits rather than exact numbers.

The target of the test is T1, full length active recombinant SYK enzyme (Homo sapiens, UniProt P43405).
T1 construct: full length active recombinant SYK enzyme (Millipore, CA); purchased Millipore, CA
The test is described as follows: Inhibition of Syk tyrosine phosphorylation activity (LANCE TR-FRET kinase assay). The test is classed as biochemical. As to conditions: 1 nM active SYK enzyme, 550 nM SYK-substrate, 100 μM ATP, 1 hour at room temperature. How it is done:
The in vitro and in vivo human Syk activities of the inventive compounds can be determined by various procedures known in the art, such as a test for their ability to inhibit the activity of human plasma Syk. […] The IC50 value is the concentration (in nM) of the compound required to provide 50% inhibition of human Syk proteolytic activity.
An in vitro assay for detecting and measuring inhibition activity against Syk is as follows:
SYK tyrosine phosphorylation activity is measured using the LANCE™ Technology developed by Perkin Elmer Life and Analytical Sciences (Boston, Mass.). LANCE™ refers to homogeneous time resolved fluorometry applications using techniques such as time-resolved fluorescence resonance energy transfer assay (TR-FRET) (see generally for procedures in Perkin Elmer Application Note—How to Optimize a Tyrosine Kinase Assay Using Time Resolved Fluorescence-Based LANCE Detection, wwww.perkinelmer.com/lifesciences). The assay principle involves detection of a phosphorylated substrate using energy transfer from a phosphospecific europium-labeled antibody to streptavidin-allophycocyanin as an acceptor.
Molecules are reconstituted in 30% DMSO and serially diluted 1:3 with the final dilution containing DMSO in the absence of the candidate molecule. The final DMSO concentration in the assay is 3%. Kinase assays are performed as a two part reaction. The first reaction is a kinase reaction and which comprises of a candidate molecule, full length active recombinant SYK enzyme (Millipore, CA) and biotin-labeled SYK-specific substrate biotin-DEEDYESP-OH. The second reaction involves termination of the kinase reaction and the simultaneous addition of the detection reagents-europium-labeled anti-phosphotyrosine reagent (Eu-W1024-PY100, Perkin Elmer, Boston, Mass.) and Streptavidin-Allophycocyanin detection reagent (SA-APC, Prozyme, CA). The kinase reaction is performed in a black U-bottom 96-well microtitre plate. The final reaction volume is 50 μL and contains a final concentration of 1 nM active SYK enzyme, 550 nM SYK-substrate, and 100 μM ATP diluted in a buffer containing 50 mM Tris pH 7.5, 5 mM MgCl2, and 1 mM DTT. The reaction is allowed to proceed for 1 hour at room temperature. The quench buffer contains 100 mM Tris pH 7.5, 300 mM NaCl2, 20 mM EDTA, 0.02% Brij35, and 0.5% BSA. The detection reagents are added to the reaction mixture at the following dilutions-1:500 for Eu-W1024-PY100 and 1:250 for SA-APC. The kinase reaction is terminated by the addition of 50 μL quench buffer containing the detection reagents. The detection is allowed to proceed for 1 hr at room temperature. Detection of the phosphorlated substrate in the absence and presence of inhibitors is measured in the TR-FRET instrument, Analyst HT (Molecular Probes, Sunnyvale, Calif.) and the condition for measurements are set up using CriterionHost Release 2.0 (Molecular Probes, Sunnyvale, Calif.). The settings used are a follows: excitation 360 nm, emission 665-7.5 nm, beam splitter 350 nm 50/50, flash 100 pulses, delay 60 us, integration 400 us, z-height 2 mm. Inhibition of SYK-tyrosine kinase activity is calculated as the maximum response observed in the presence of inhibitor, compared to that in the absence of inhibitor. IC50s were derived by non-linear regression analysis.
In the case of `NC(=O)c1ncc(N[C@@H]2CCCC[C@@H]2N)cc1Nc1cc(C2CC2)no1` [Example 34, 5-((1R,2S)-2-aminocyclohexylamino)-3-(3-cyclopropylisoxazol-5-ylamino)picolinamide], the IC50 was in the range of 1 to 10 nM. As for `CC(C)c1cc(Nc2cc(N[C@@H]3CCCC[C@@H]3N)cnc2C(N)=O)on1` [Example 36, 5-((1R,2S)-2-aminocyclohexylamino)-3-(3-isopropylisoxazol-5-ylamino)picolinamide], the IC50 was 10 to 100 nM.

In the case of `NC(=O)c1ncc(N[C@@H]2CCCC[C@@H]2N)cc1Nc1cccc(-n2nccn2)c1` [Example 6, 3-(3-(2H-1,2,3-triazol-2-yl)phenylamino)-5-((1R,2S)-2-aminocyclohexylamino)picolinamide], the concentration for half-maximal inhibition (IC50) fell in the range of 10 to 100 nM. As for `NC(=O)c1ncc(N[C@@H]2CCCC[C@@H]2N)cc1Nc1cnc2ccccc2c1` [Example 13, 5-((1R,2S)-2-aminocyclohexylamino)-3-(quinolin-3-ylamino)picolinamide], the IC50 was in the range of 100 to 1000 nM. Turning to `CC(C)(C)[C@@H](Nc1cnc(C(N)=O)c(Nc2cc(C3CC3)ns2)c1)C(N)=O` [Example 39, (R)-5-(1-amino-3,3-dimethyl-1-oxobutan-2-ylamino)-3-(3-cyclopropylisothiazol-5-ylamino)picolinamide], the IC50 lay in the range of 10 to 100 nM. For `Cc1nsc(Nc2cc(N[C@H](CC3CC3)C(N)=O)cnc2C(N)=O)c1I` [Example 31, (R)-5-((1-amino-3-cyclopropyl-1-oxopropan-2-yl)amino)-3-((4-iodo-3-methylisothiazol-5-yl)amino)picolinamide], the IC50 was in the range of 100 to 1000 nM. With `Cc1cc(Nc2cc(N[C@H](CC(C)C)C(N)=O)cnc2C(N)=O)sn1` [Example 1, (R)-5-(1-amino-4-methyl-1-oxopentan-2-ylamino)-3-(3-methylisothiazol-5-ylamino)picolinamide], the IC50 fell in the range of 1 to 10 nM. Regarding `NC(=O)c1ncc(N[C@@H]2CCCC[C@@H]2N)cc1Nc1cnsc1` [Example 28, 5-((1R,2S)-2-aminocyclohexylamino)-3-(isothiazol-4-ylamino)picolinamide], the IC50 is 100 to 1000 nM.

In the case of `CC(C)C[C@@H](Nc1cnc(C(N)=O)c(Nc2cc(-c3ccccc3)no2)c1)C(N)=O` [Example 11, (R)-5-(1-amino-4-methyl-1-oxopentan-2-ylamino)-3-(3-phenylisoxazol-5-ylamino)picolinamide], the IC50 lay in the range of 1 to 10 nM. Turning to `CC[C@@H](Nc1cnc(C(N)=O)c(Nc2cc(C)ns2)c1)C(N)=O` [Example 5, (R)-5-(1-amino-1-oxobutan-2-ylamino)-3-(3-methylisothiazol-5-ylamino)picolinamide], the 50% inhibitory concentration (IC50) was 10 to 100 nM. Regarding `NC(=O)c1ncc(N[C@@H]2CCCC[C@@H]2N)cc1Nc1cncs1` [Example 56, 5-(((1R,2S)-2-aminocyclohexyl)amino)-3-(thiazol-5-ylamino)picolinamide], the IC50 is more than 1000 nM. With `CC(C)C[C@@H](Nc1cnc(C(N)=O)c(Nc2cc(-c3ccncc3)no2)c1)C(N)=O` [Example 47, (R)-5-(1-amino-4-methyl-1-oxopentan-2-ylamino)-3-(3-(pyridin-4-yl)isoxazol-5-ylamino)picolinamide] the figure was 1 to 10 nM.

Turning to `CC(C)C[C@@H](Nc1cnc(C(N)=O)c(Nc2ccc3cnccc3c2)c1)C(N)=O` [Example 17, (R)-5-(1-amino-4-methyl-1-oxopentan-2-ylamino)-3-(isoquinolin-6-ylamino)picolinamide], the IC50 was in the range of 10 to 100 nM. For `NC(=O)c1ncc(N[C@H](CC(F)(F)F)C(N)=O)cc1Nc1ccc2cccnc2c1` [Example 51, (R)-5-(1-amino-4,4,4-trifluoro-1-oxobutan-2-ylamino)-3-(quinolin-7-ylamino)picolinamide], the IC50 was in the range of 1 to 10 nM. With `Cc1cc(Nc2cc(N[C@@H]3CCCC[C@@H]3N)cnc2C(N)=O)on1` [Example 10, 5-((1R,2S)-2-aminocyclohexylamino)-3-(3-methylisoxazol-5-ylamino)picolinamide] the figure was 10 to 100 nM; with `Cc1cc(Nc2cc(N[C@@H]3CCCC(F)(F)[C@@H]3N)cnc2C(N)=O)sn1` [Example 2, 5-((1R,2R)-2-amino-3,3-difluorocyclohexylamino)-3-(3-methylisothiazol-5-ylamino)picolinamide], 10 to 100 nM; with `Cc1cc(Nc2cc(N[C@@H](C(N)=O)C(C)C)cnc2C(N)=O)sn1` [Example 7, (R)-5-(1-amino-3-methyl-1-oxobutan-2-ylamino)-3-(3-methylisothiazol-5-ylamino)picolinamide], 10 to 100 nM. For the compound `Cc1cc(Nc2cc(N[C@H](CCS(C)(=O)=O)C(N)=O)cnc2C(N)=O)sn1` [Example 45, (R)-5-(1-amino-4-(methylsulfonyl)-1-oxobutan-2-ylamino)-3-(3-methylisothiazol-5-ylamino)picolinamide], the IC50 was in the range of 10 to 100 nM.

`CCc1cc(Nc2cc(N[C@@H](C(N)=O)C(C)C)cnc2C(N)=O)sn1` [Example 33, (R)-5-(1-amino-3-methyl-1-oxobutan-2-ylamino)-3-(3-ethylisothiazol-5-ylamino)picolinamide]: the IC50 was in the range of 10 to 100 nM. With `CC(C)(C)C[C@@H](Nc1cnc(C(N)=O)c(Nc2cc(F)c3ncccc3c2)c1)C(N)=O` [Example 40, (R)-5-(1-amino-4,4-dimethyl-1-oxopentan-2-ylamino)-3-(8-fluoroquinolin-6-ylamino)picolinamide], the IC50 was in the range of 10 to 100 nM. On to `NC(=O)c1ncc(N[C@@H]2CCCC[C@@H]2N)cc1Nc1ccc2ncccc2c1` [Example 27, 5-((1R,2S)-2-aminocyclohexylamino)-3-(quinolin-6-ylamino)picolinamide], for which the IC50 lay within 10 to 100 nM. As to `NC(=O)c1ncc(N[C@@H]2CCCC[C@@H]2N)cc1Nc1cnn2ccccc12` [Example 25, 5-((1R,2S)-2-aminocyclohexylamino)-3-(pyrazolo[1,5-a]pyridin-3-ylamino)picolinamide], the IC50 was 100 to 1000 nM.

For `Cc1cc(Nc2cc(N[C@@H]3CCCC[C@@H]3N)cnc2C(N)=O)sn1` [Example 4, 5-((1R,2S)-2-aminocyclohexylamino)-3-(3-methylisothiazol-5-ylamino)picolinamide], the IC50 lay within 1 to 10 nM. With `Cc1cc(Nc2cc(N[C@@H](C(N)=O)c3ccccc3)cnc2C(N)=O)sn1` [Example 42, (R)-5-(2-amino-2-oxo-1-phenylethylamino)-3-(3-methylisothiazol-5-ylamino)picolinamide] the figure was 10 to 100 nM; with `Cc1cc(Nc2cc(N[C@@H]3CCOC[C@@H]3N)cnc2C(N)=O)sn1` [Example 23, 5-((3R,4R)-3-aminotetrahydro-2H-pyran-4-ylamino)-3-(3-methylisothiazol-5-ylamino)picolinamide], 1 to 10 nM; with `CC[C@@H](Nc1cnc(C(N)=O)c(Nc2cnc3cccnc3c2)c1)C(N)=O` [Example 54, (R)-3-(1,5-naphthyridin-3-ylamino)-5-(1-amino-1-oxobutan-2-ylamino)picolinamide], 100 to 1000 nM. As to `CCc1cc(Nc2cc(N[C@@H]3CCCC[C@@H]3N)cnc2C(N)=O)on1` [Example 37, 5-((1R,2S)-2-aminocyclohexylamino)-3-(3-ethylisoxazol-5-ylamino)picolinamide], the IC50 lay within 10 to 100 nM. Take `COC[C@@H](Nc1cnc(C(N)=O)c(Nc2cc(C)ns2)c1)C(N)=O` [Example 48, (R)-5-(1-amino-3-methoxy-1-oxopropan-2-ylamino)-3-(3-methylisothiazol-5-ylamino)picolinamide]: the IC50 lay within 10 to 100 nM. On to `NC(=O)c1ncc(N[C@@H]2CCCC(F)(F)[C@@H]2N)cc1Nc1cc(-c2ccccc2)no1` [Example 9, 5-((1R,2R)-2-amino-3,3-difluorocyclohexylamino)-3-(3-phenylisoxazol-5-ylamino)picolinamide], for which the IC50 was 100 to 1000 nM.

On to `Cc1cc(Nc2cc(N[C@H](CC3CCCCC3)C(N)=O)cnc2C(N)=O)sn1` [Example 18, (R)-5-(1-amino-3-cyclohexyl-1-oxopropan-2-ylamino)-3-(3-methylisothiazol-5-ylamino)picolinamide], for which the IC50 lay within 10 to 100 nM.
